Source: patent publication US20020168325A1, “NOS inhibitors for treatment of wrinkles” (priority 2001, published 2002)
“Also recorded” adds a separate entry of the source.

Columns and labels:
[1] = tested on: ears of female Balb/C mice; test: Ear swelling response (skin irritation from topical application); format: in vivo
Protocol: To examine the potential for irritation from topical application of a NOS inhibitor to the skin, measurements of ear swelling response were performed as follows: The thickness of both ears of each of three female Balb/C mice, 10 weeks of age, was measured with a thickness gage (Mitsutoyo Corp.). Ten microliters of 1% L-NAME (L-N^G-nitro-arginine methyl ester) in 70% ethanol in water was applied to each right ear, and 10 microliters of 70% ethanol in water was applied to each left ear as a control. Ear thickness was monitored over two consecutive days following administration of the solutions.

[2] = tested on: back skin of mice (HR-1 hairless strain); test: Wrinkle formation caused by UVB exposure, analysis of back skin replicas (Wrinkle Analyzer 3D Pro); format: in vivo
Excerpt: The effect of a compound on the formation or appearance of wrinkles can be evaluated qualitatively, e.g., by visual inspection, or quantitatively, e.g., by computer assisted measurements of wrinkle morphology. Preferably, wrinkle morphology is quantitatively analyzed. Examples of quantitative methods for measuring wrinkles include, but are not limited to, the optical cut technique employing a laser beam, as proposed by Hoshino (1992) Pixel 45:121, herein incorporated by reference; or methods which analyze three-dimensional skin replicas, e.g., the Shiseido Wrinkle Analyzer 3D Pro system (Takasu et al. (1996) J Soc Cosmet Chem Japan 29:394-405; Japanese Published Patent Application No. 07-113623, published May 2, 1995 (corresponds to U.S. patent application Ser. No. 08/364,346)). The SILFLO (Flexico Development Ltd.) system or a similar system can be used to take a replica of the skin. Irregularities on the surface of the skin replica, i.e., wrinkles, are analyzed, e.g., with the Shiseido Wrinkle Analyzer 3D Pro or a similar system, to provide three-dimensional shape data from the heights at points on a two-dimensional plane corresponding to the skin. According to the three-dimensional data, the length, width, depth, area, and volume of each wrinkle is calculated. According to the parameters for regular and fine wrinkles described herein, different classes of wrinkles, including the subclasses of regular and fine wrinkles, can thus be individually recognized and scored.
To examine the effect of L-NAME on wrinkle formation, wrinkle measurements experiments were performed on the back skin of mice (HR-1 hairless strain, female, 5 weeks of age, n=3) by taking and analyzing skin replicas.
Mice were exposed to UVB irradiation three times a week for ten weeks beginning with 0.3mW/cm^2. The total exposure was 4.662J/cm^2. 100 microliters of 1% L-NAME in 70% ethanol, or 70% ethanol as a control, was applied after each UVB irradiation. Three days after the final UVB irradiation, skin replicas of the dorsal area were taken by means of SILFLO (Flexico Development Ltd.). Replicas were evaluated by the Wrinkle Analyzer 3D Pro developed by Shiseido (essentially as described in Takasu et al. (1996) J Soc Cosmet Chem Japan 29:394-405). Wrinkdle volume and width of regular and fine wrinkles was calculated through three-dimensional data.

[3] = UVB three times a week for ten weeks, 100 microliters of 1% L-NAME in 70% ethanol after each irradiation, replicas three days after final UVB

## COC(=O)[C@@H](N)CCCNC(=N)N[N+](=O)[O-] [L-NAME, L-N^G-nitro-arginine methyl ester]
[1]; 1% L-NAME in 70% ethanol vs 70% ethanol control, over two days
  Difference in ear thickness between control and treated ears: no statistically significant difference in ear thickness
[1]; 1% L-NAME in 70% ethanol, topical on ear
  Skin inflammation / other signs of irritation (redness, flaking): did not cause skin inflammation; also recorded: no other signs of skin irritation or inflammation
[1]; Day 0, right ears, 10 microliters of 1% L-NAME in 70% ethanol topical, three female Balb/C mice
  Ear thickness DAY 0, AVE ± SD: 26.33 ± 0.58 × 0.01 mm
[1]; Day 1 after application, right ears, 10 microliters of 1% L-NAME in 70% ethanol topical
  Ear thickness DAY 1, AVE ± SD: 25.33 ± 0.58 × 0.01 mm
[1]; Day 2 after application, right ears, 10 microliters of 1% L-NAME in 70% ethanol topical
  Ear thickness DAY 2, AVE ± SD: 26.33 ± 0.58 × 0.01 mm
[2]; 1% L-NAME in 70% ethanol on back skin of mice, compared to control mice
  Effect on fine wrinkle formation caused by UVB exposure: prevented the formation of fine wrinkles; also recorded: reduction in fine wrinkles
[2]; [3]
  Wrinkle volume, fine wrinkles: 175,295 pixels
  Wrinkle volume, regular wrinkles: 896,863 pixels
  Wrinkle volume, total (regular + fine): 1,072,158 pixels
